These results are taken from patent US20130252930A1 (BIOMARIN PHARMACEUTICAL INC., priority 2010, published 2013).

The test system of series [1] is rat Cyp11B enzyme (rat adrenal mitochondria). The series can be described thus: CYP11B enzymatic assay (% inhibition at 100 nM) (Biological Example 9). The format is biochemical. Conditions: for CYP11B enzymatic assay % inhibition at 100 nM (Biological Example No. 9): compound at 100 nM. The procedure: Adrenals excised from Sprague Dawley rats were homogenized, and mitochondria fraction were prepared by a series of centrifugation as described in Shuji Ohno, et al. J. of Steroid Biochemistry & Molecular Biology 2002, 80, 355-363. Prepared mitochondria protein was washed and resuspended in Buffer B (0.21 M mannitol, 70 mM sucrose, 5 mM MgCl2, 0.5 mM CaCl2, 20 mM Tris-HCl (pH 7.4) and 1 mM DTT, […]). The protein concentration was determined by BCA assay and stored as 10 μL aliquots at −80° C.
The rat Cyp11B enzyme assay was performed in 96-well plates. Typical assays were carried out in total 50 μL volume that included test compounds at 100 nM concentration, 1× Buffer B, 0.5 mM NADPH, 0.1 μM 11-deoxycortisol, and 2 μL of prepared rat adrenal mitochondria (added last). Reaction without test compound served as positive control and reaction without NADPH served as negative control. Reactions were allowed to incubate at 37° C. for 60 min with gentle shaking. The reaction was stopped by directly applying the enzymatic reaction mixture (1:5 diluted in ELISA assay buffer) to ELISA plate for evaluation of cortisol concentration according to manufacturer's protocol (Assay Design).
The mean absorbance value for each sample was used to determine the corresponding concentration from the standard curve. Amount of cortisol in the negative control (reaction that dis not include NADPH) was subtracted from total cortisol. Percent inhibition (inhibition %) of the compound was calculated using normalized cortisol concentration based on following formula: 100−([Cortisol] of compound/[Cortisol] of positive control *100).

Series [2] deals with T1, CYP17 (human testicular microsome) (Homo sapiens, UniProt P05093).
T1 construct: using microsomal fraction from human testis (Celsis Cat #S00110) as the enzyme source; tissue Celsis S00110; host or cells: human testis microsomal fraction
T1 sequence (P05093 1-508): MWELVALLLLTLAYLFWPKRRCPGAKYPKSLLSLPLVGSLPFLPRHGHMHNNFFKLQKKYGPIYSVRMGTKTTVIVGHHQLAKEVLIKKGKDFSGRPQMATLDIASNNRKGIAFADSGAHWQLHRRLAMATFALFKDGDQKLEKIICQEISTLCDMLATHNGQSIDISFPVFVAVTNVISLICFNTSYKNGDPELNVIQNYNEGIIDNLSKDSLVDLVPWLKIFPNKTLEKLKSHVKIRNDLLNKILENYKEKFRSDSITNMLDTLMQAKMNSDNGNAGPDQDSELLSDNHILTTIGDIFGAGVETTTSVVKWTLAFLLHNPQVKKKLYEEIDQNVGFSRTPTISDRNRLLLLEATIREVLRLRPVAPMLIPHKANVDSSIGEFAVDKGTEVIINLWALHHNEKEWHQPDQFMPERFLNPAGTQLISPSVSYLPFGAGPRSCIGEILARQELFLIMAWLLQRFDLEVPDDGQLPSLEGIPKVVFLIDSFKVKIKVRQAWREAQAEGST
The series can be described thus: CYP17 enzymatic assay (% inhibition at 10 nM), version 1 (Biological Example 5). The series is classed as biochemical.

The target of series [3] is T1, CYP17 (human testicular microsome). Kind of series: CYP17 enzymatic assay (IC50) (Biological Example 4). The series is classed as biochemical. The conditions noted are these: human testicular microsome; read-out: CYP17 enzymatic assay IC50 (Biological Example No. 4).
Series [4] can be described thus: Human liver microsome stability assay (Biological Example 8b). The conditions noted are these: liver microsomes, pH 7.4. For orientation: Liver microsomes are a subcellular fraction often used to study metabolism.
Experimental: The reaction was started with addition of excess NADPH (5 mg/mL, 15 μL in 0.1 M potassium phosphate buffer, 1.0 mM EDTA, pH 7.4), the total volume is 45 μL (compound final concentration was 1 μM). […] 50 μL of the supernatant was transferred from each well into a 96-well sample plate containing 50 μL of ultra-pure water (Millipore) for LC-MS/MS analysis.
Series [5] addresses T1, CYP17 (human testicular microsome). The series can be described thus: CYP17 enzymatic assay (% inhibition at 1 nM) (Biological Example 12). The format is biochemical. The conditions noted are these: compound at 1 nM, read-out: CYP17 enzymatic assay % inhibition at 1 nM (Biological Example No. 12).
The target of series [6] is T2, Cyp21 enzyme (Human HEK 293-Cyp21 stable transfected cells) (Homo sapiens, UniProt P08686).
T2 construct: expressed in transfected cells
T2 sequence (P08686 1-495): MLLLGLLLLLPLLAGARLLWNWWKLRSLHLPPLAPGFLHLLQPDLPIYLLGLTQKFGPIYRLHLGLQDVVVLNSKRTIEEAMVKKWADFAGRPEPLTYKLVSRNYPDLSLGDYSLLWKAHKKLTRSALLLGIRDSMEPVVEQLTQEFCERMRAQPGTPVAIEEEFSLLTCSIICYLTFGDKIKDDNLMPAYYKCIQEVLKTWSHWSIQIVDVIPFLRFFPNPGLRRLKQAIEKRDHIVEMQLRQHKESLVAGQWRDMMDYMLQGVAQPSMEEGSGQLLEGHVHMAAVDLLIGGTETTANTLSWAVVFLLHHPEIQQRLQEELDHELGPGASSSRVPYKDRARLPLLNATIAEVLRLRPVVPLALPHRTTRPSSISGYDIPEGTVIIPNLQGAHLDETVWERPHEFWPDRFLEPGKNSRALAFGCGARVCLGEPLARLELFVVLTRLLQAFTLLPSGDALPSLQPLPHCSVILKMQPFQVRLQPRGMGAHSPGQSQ
Kind of series: CYP21-HEK293 enzymatic assay (IC50) (Biological Example 11). The conditions noted are these: HEK 293-Cyp21 cells; read-out: CYP21-HEK293 enzymatic assay IC50 (Biological Example No. 11). The format is cell-based.

Setting [7] is: compound at 10 nM, read-out: CYP17 enzymatic assay % inhibition at 10 nM (Biological Example No. 5).

Read-outs that look alike come from different tables or passages of the source.

A word on the inhibition: it is the change of the read-out against control, counted positive when it falls. `CC(=O)O[C@H]1CC[C@@]2(C)C(=CC[C@H]3C4=CC=C(c5cccnc5)[C@@]4(C)CC[C@@H]32)C1` [Compound 78, (3S,10R,13S)-10,13-dimethyl-17-(pyridin-3-yl)-2,3,4,7,8,9,10,11,12,13-decahydro-1H-cyclopenta[a]phenanthren-3-yl acetate]: the “Biological Example No. 9: CYP11B percent inhibition at 100 nM” value in series [1] (100 nM compound, cortisol by ELISA) is listed as “U (U means the compound had a percent inhibition of greater than or equal to 32%)”. The inhibition at 0.01 µM in series [2] (10 nM compound, DHEA by ELISA, read-out: Biological Example No. 5: CYP17 percent inhibition at 10 nM (version 1)) was in the range of 1 to 50%.
For orientation: IC50 means the point on the concentration scale where inhibition reaches its midpoint. One may read the half-life as the time needed for the level to fall by half in the phase considered. On to `CN1C(=O)CCC[C@@]2(C)C1=CCC1C2CC[C@]2(C)C(c3cccnc3)=CCC12` (stereo partly drawn) [Compound 180, (5aR,7aS)-1,5a,7a-trimethyl-8-(pyridin-3-yl)-3,4,5,5a,5b,6,7,7a,10,10a,10b,11-dodecahydrocyclopenta[5,6]naphtho[2,1-b]azepin-2(1H)-one], for which, in series [3], the IC50 is < 0.011 µM. Moreover, in series [1], the “CYP11B enzymatic assay % inhibition at 100 nM (Biological Example No. 9)” value is “U (U means the compound had a percent inhibition of greater than or equal to 32%)”. The inhibition at 0.01 µM in series [2] (setting [7]) is > 80%. The same compound displayed a half-life at 1 μM in series [4] of 1 to 50 min.
On to `COc1cncc(C2=CCC3C4CC=C5N(C)C(=O)CCC[C@]5(C)C4CC[C@]23C)c1` (stereo partly drawn) [Compound 181, (5aR,7aS)-8-(5-methoxypyridin-3-yl)-1,5a,7a-trimethyl-3,4,5,5a,5b,6,7,7a,10,10a,10b,11-dodecahydrocyclopenta[5,6]naphtho[2,1-b]azepin-2(1H)-one], for which, in series [1], the “CYP11B enzymatic assay % inhibition at 100 nM (Biological Example No. 9)” value was “U (U means the compound had a percent inhibition of greater than or equal to 32%)”. Further, the inhibition at 0.01 µM in series [2] (setting [7]) is > 80%. For the same compound, the half-life at 1 μM in series [4] fell in the range of 1 to 50 min.
`Cc1cncc(C2=CCC3C4CC=C5N(C)C(=O)CCC[C@]5(C)C4CC[C@]23C)c1` (stereo partly drawn) [Compound 182, (5aR,7aS)-1,5a,7a-trimethyl-8-(5-methylpyridin-3-yl)-3,4,5,5a,5b,6,7,7a,10,10a,10b,11-dodecahydrocyclopenta[5,6]naphtho[2,1-b]azepin-2(1H)-one]: the “CYP11B enzymatic assay % inhibition at 100 nM (Biological Example No. 9)” value in series [1] is given as “U (U means the compound had a percent inhibition of greater than or equal to 32%)”. In addition, the inhibition at 0.01 µM in series [2] (setting [7]) lay within 50 to 80%.
Turning to `CN1C(=O)CC[C@@]2(C)C1=CC[C@@H]1[C@@H]2CC[C@]2(C)C(n3ccnc3)=CC[C@@H]12` [Compound 183, (4aR,6aS)-7-(1H-imidazol-1-yl)-1,4a,6a-trimethyl-4,4a,4b,5,6,6a,9,9a,9b,10-decahydro-1H-indeno[5,4-f]quinolin-2(3H)-one], in series [1], the “CYP11B enzymatic assay % inhibition at 100 nM (Biological Example No. 9)” value was “U (U means the compound had a percent inhibition of greater than or equal to 32%)”. In series [2] (setting [7]), the inhibition at 0.01 µM fell in the range of 50 to 80%.
With `CN1C(=O)C[C@@]2(C)C1=CCC1C2CC[C@]2(C)C(c3cccnc3)=CCC12` (stereo partly drawn) [Compound 185, (3aR,5aS)-1,3a,5a-trimethyl-6-(pyridin-3-yl)-3,3a,3b,4,5,5a,8,8a,8b,9-decahydroindeno[5,4-e]indol-2(1H)-one], the IC50 in series [3] is < 0.011 µM. For the same compound, the “CYP11B enzymatic assay % inhibition at 100 nM (Biological Example No. 9)” value in series [1] is “U (U means the compound had a percent inhibition of greater than or equal to 32%)”. Moreover, in series [5], the inhibition at 0.001 µM is > 50%.
For `COc1cncc(C2=CCC3C4CC=C5N(C)C(=O)C[C@]5(C)C4CC[C@]23C)c1` (stereo partly drawn) [Compound 187, (3aR,5aS)-6-(5-methoxypyridin-3-yl)-1,3a,5a-trimethyl-3,3a,3b,4,5,5a,8,8a,8b,9-decahydroindeno[5,4-e]indol-2(1H)-one], the IC50 in series [3] was < 0.011 µM. Besides, the “CYP11B enzymatic assay % inhibition at 100 nM (Biological Example No. 9)” value in series [1] is on record as “T (T means the compound had a percent inhibition of less than 32% when tested at 100 nM)”. Moreover, the half-life at 1 μM in series [4] lay within 1 to 50 min. Also, the inhibition at 0.001 µM in series [5] is > 50%.
On to `CCCC(=O)N1CCC2CC[C@@H]3[C@H](CC[C@]4(C)C(n5ccnc5)=CC[C@@H]34)[C@@]2(C)CC1` (stereo partly drawn) [Compound 434, 1-((5aS,7aS)-8-(1H-imidazol-1-yl)-5a,7a-dimethyl-1,2,5,5a,5b,6,7,7a,10,10a,10b,11,12,12a-tetradecahydrocyclopenta[5,6]naphtho[1,2-d]azepin-3(4H)-yl)butan-1-one], for which the IC50 in series [6] was > 1 µM; in series [3] it was < 0.011 µM. Besides, the “CYP11B enzymatic assay % inhibition at 100 nM (Biological Example No. 9)” value in series [1] was “T (T means the compound had a percent inhibition of less than 32% when tested at 100 nM)”. In addition, the inhibition at 0.001 µM in series [5] is > 50%.
In the same order, the values of `CCC(=O)N1CCC[C@@]2(C)C(CCC3C2CC[C@]2(C)C(c4cccnc4)=CCC32)C1` (stereo partly drawn) [Compound 435, 1-((5aR,7aS)-5a,7a-dimethyl-8-(pyridin-3-yl)-3,4,5,5a,5b,6,7,7a,10,10a,10b,11,12,12a-tetradecahydrocyclopenta[5,6]naphtho[2,1-c]azepin-2(1H)-yl)propan-1-one] are > 1 µM, < 0.011 µM, “U (U means the compound had a percent inhibition of greater than or equal to 32%)” and 10 to 50%.
Turning to `CCC(=O)N1CCC2CCC3C(CC[C@]4(C)C(c5cccnc5)=CCC34)[C@@]2(C)CC1` (stereo partly drawn) [Compound 436, 1-((5aS,7aS)-5a,7a-dimethyl-8-(pyridin-3-yl)-1,2,5,5a,5b,6,7,7a,10,10a,10b,11,12,12a-tetradecahydrocyclopenta[5,6]naphtho[1,2-d]azepin-3(4H)-yl)propan-1-one], the IC50 in series [6] is > 1 µM; in series [3] it was < 0.011 µM. Moreover, in series [1], the “CYP11B enzymatic assay % inhibition at 100 nM (Biological Example No. 9)” value is recorded as “T (T means the compound had a percent inhibition of less than 32% when tested at 100 nM)”. Further, in series [5], the inhibition at 0.001 µM fell in the range of 10 to 50%.
Consider `COC(=O)N1CCC[C@@]2(C)[C@@H](CC[C@@H]3[C@@H]2CC[C@]2(C)C(n4ccnc4)=CC[C@@H]32)C1` [Compound 442, (5aR,5bS,7aS,10aS,10bR,12aR)-methyl 8-(1H-imidazol-1-yl)-5a,7a-dimethyl-3,4,5,5a,5b,6,7,7a,10,10a,10b,11,12,12a-tetradecahydrocyclopenta[5,6]naphtho[2,1-c]azepine-2(1H)-carboxylate], for which the IC50 in series [6] is > 0.1 µM. The “CYP11B enzymatic assay % inhibition at 100 nM (Biological Example No. 9)” value in series [1] is “U (U means the compound had a percent inhibition of greater than or equal to 32%)”. Besides, the inhibition at 0.001 µM in series [5] was in the range of 10 to 50%.
